Laboratory results taken from the supplement of paper PMC8149375.

Columns and labels:
Settings in all cases: treatment: drug alone; 5 days
TK-10 [1] = assay: AUC of dose-response viability curve, drug alone (arbitrary (AUC of normalised viability)); higher = less growth inhibition
Protocol: (§1)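 Primary HTS: 8 RCC cell lines treated with 8 doses (up to 10 uM) of each library drug alone for 5 days; viability read by CellTiter-Glo and normalised to DMSO. GI50 was fitted with XLfit (4-parameter), AUC is the area under the dose-response curve, and minimum viability is the lowest fraction of DMSO viability across doses.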

SN12C [2] = assay: as above
Protocol: as §1

UO-31 [3] = assay: as above
Protocol: as §1

ACHN [4] = assay: as above
Protocol: as §1

CAKI-1 [5] = assay: as above
Protocol: as §1

786-O [6] = assay: as above
Protocol: as §1

769-P [7] = assay: as above
Protocol: as §1

A498 [8] = assay: as above
Protocol: as §1

TK-10 [9] = assay: GI50, drug alone; higher = less potent
Protocol: as §1

SN12C [10] = assay: GI50, drug alone; higher = less potent
Protocol: as §1

UO-31 [11] = assay: GI50, drug alone; higher = less potent
Protocol: as §1

ACHN [12] = assay: GI50, drug alone; higher = less potent
Protocol: as §1

CAKI-1 [13] = assay: GI50, drug alone; higher = less potent
Protocol: as §1

786-O [14] = assay: GI50, drug alone; higher = less potent
Protocol: as §1

769-P [15] = assay: GI50, drug alone; higher = less potent
Protocol: as §1

A498 [16] = assay: GI50, drug alone; higher = less potent
Protocol: as §1

TK-10 [17] = assay: minimum viability across doses, drug alone, relative to DMSO (fraction); higher = less growth inhibition
Protocol: as §1

SN12C [18] = assay: as above
Protocol: as §1

UO-31 [19] = assay: as above
Protocol: as §1

ACHN [20] = assay: as above
Protocol: as §1

CAKI-1 [21] = assay: as above
Protocol: as §1

786-O [22] = assay: as above
Protocol: as §1

769-P [23] = assay: as above
Protocol: as §1

A498 [24] = assay: as above
Protocol: as §1

SMILES | AUC of dose-response viability curve (TK-10 [1]) | AUC of dose-response viability curve (SN12C [2]) | AUC of dose-response viability curve (UO-31 [3]) | AUC of dose-response viability curve (ACHN [4]) | AUC of dose-response viability curve (CAKI-1 [5]) | AUC of dose-response viability curve (786-O [6]) | AUC of dose-response viability curve (769-P [7]) | AUC of dose-response viability curve (A498 [8]) | GI50, drug alone (TK-10 [9]) [µM] | GI50, drug alone (SN12C [10]) [µM] | GI50, drug alone (UO-31 [11]) [µM] | GI50, drug alone (ACHN [12]) [nM] | GI50, drug alone (CAKI-1 [13]) [µM] | GI50, drug alone (786-O [14]) [nM] | GI50, drug alone (769-P [15]) [µM] | GI50, drug alone (A498 [16]) [µM] | minimum viability across doses (TK-10 [17]) | minimum viability across doses (SN12C [18]) | minimum viability across doses (UO-31 [19]) | minimum viability across doses (ACHN [20]) | minimum viability across doses (CAKI-1 [21]) | minimum viability across doses (786-O [22]) | minimum viability across doses (769-P [23]) | minimum viability across doses (A498 [24])
O=C(Nc1cc(C(F)(F)F)cc(C(F)(F)F)c1)c1cc(Cl)ccc1O [IMD 0354] | 2.4 | 2.67 | 4.73 | 2.4 | 2.8 | 2.03 | 2.71 | 3.46 | 1.22 | 1.35 | 2.96 | 943 | 1.08 | 412 | 1.29 | 1.59 | 0.0653 | 0.00716 | 0.019 | 0.00484 | 0.036 | 0.00771 | 0.0108 | 0.0128
CC(C)n1nc(-c2ccc3oc(N)nc3c2)c2c(N)ncnc21 [INK 128] | 0.931 | 1.27 | 0.778 | 0.901 | 1.12 | 0.69 | 1.34 | 1.63 | 0.012 | 0.039 | 0.0252 | 15.2 | 0.0344 | 6.65 | 0.0504 | 0.071 | 0.0249 | 0.0865 | 0.00678 | 0.0484 | 0.0368 | 0.00552 | 0.0864 | 0.104
Cc1ccc(NC(=O)c2ccc(CN3CCN(C)CC3)cc2)cc1Nc1nccc(-c2cccnc2)n1 [Imatinib (Gleevec)] | 3.07 | 3.06 | 4.67 | 3.41 | 3.35 | 2.36 | 3.23 | 3.83 | > 10 | > 10 | > 10 | > 10000 | > 10 | > 10000 | > 10 | > 10 | 0.829 | 0.77 | 1.03 | 0.802 | 0.891 | 0.514 | 0.858 | 0.919
CS(=O)(=O)O.Cc1ccc(NC(=O)c2ccc(CN3CCN(C)CC3)cc2)cc1Nc1nccc(-c2cccnc2)n1 [Imatinib Mesylate] | 3.25 | 3.55 | 5.21 | 3.71 | 3.61 | 2.83 | 3.45 | 3.89 | > 10 | > 10 | > 10 | > 10000 | > 10 | 8420 | > 10 | > 10 | 0.861 | 0.775 | 1.1 | 0.855 | 0.965 | 0.399 | 0.898 | 0.973
O=C1Nc2ccccc2/C1=C1/Nc2ccccc2C1=O [Indirubin] | 2.6 | 2.66 | 2.68 | 2.9 | 2.94 | 2.32 | 3.19 | 3.26 | > 10 | > 10 | > 10 | > 10000 | > 10 | > 10000 | > 10 | > 10 | 0.635 | 0.703 | 0.655 | 0.778 | 0.762 | 0.529 | 0.811 | 0.827
CCCNC(=O)Nc1ccc(Oc2ncnc3cc(OC)c(OC)cc23)cc1Cl [KRN 633] | 2.8 | 2.93 | 3.91 | 2.92 | 3.24 | 2.11 | 3.34 | 4.07 | > 10 | > 10 | > 10 | > 10000 | > 10 | 3930 | > 10 | > 10 | 0.664 | 0.718 | 0.734 | 0.742 | 0.817 | 0.366 | 0.861 | 0.974
O=C(c1ccc(/C=C/c2n[nH]c3ccccc23)cc1)N1CCNCC1 [KW 2449] | 3.23 | 3.03 | 4.33 | 2.67 | 2.93 | 3.77 | 3.12 | 3.72 | > 10 | 4.76 | > 10 | 2120 | 3.54 | > 10000 | > 10 | > 10 | 0.645 | 0.241 | 0.86 | 0.215 | 0.268 | 0.814 | 0.549 | 0.828
O=C(Cc1ccc(-c2ccc(OCCN3CCOCC3)cc2)cn1)NCc1ccccc1 [KX2-391] | 1.95 | 1.72 | 1.48 | 1.66 | 1.67 | 0.9 | 1.43 | 1.84 | 0.193 | 0.115 | 0.0852 | 75.5 | 0.0797 | 26.8 | 0.0606 | 0.0893 | 0.27 | 0.102 | 0.00967 | 0.113 | 0.142 | 0.00471 | 0.0797 | 0.177
COc1cc2nccc(Oc3ccc(NC(=O)Nc4ccc(F)cc4F)c(F)c3)c2cc1OC [Ki8751] | 3.08 | 3.45 | 2.83 | 3.13 | 3.34 | 3.06 | 3.31 | 5.49 | > 10 | > 10 | 0.445 | > 10000 | 7.43 | > 10000 | > 10 | > 10 | 0.72 | 0.877 | 0.00557 | 0.574 | 0.403 | 0.673 | 0.559 | 1
CS(=O)(=O)CCNCc1ccc(-c2ccc3ncnc(Nc4ccc(OCc5cccc(F)c5)c(Cl)c4)c3c2)o1.Cc1ccc(S(=O)(=O)O)cc1.Cc1ccc(S(=O)(=O)O)cc1 [Lapatinib Ditosylate (Tykerb)] | 2.51 | 3.16 | 4.64 | 2.78 | 3.24 | 2.9 | 2.86 | 3.99 | 3.78 | > 10 | > 10 | 5290 | 9.61 | > 10000 | 7.1 | > 10 | 0.39 | 0.734 | 1.05 | 0.419 | 0.48 | 0.471 | 0.455 | 0.929
Nc1cccc2c1CN(C1CCC(=O)NC1=O)C2=O (configuration not stated) [Lenalidomide (Revlimid)] | 3.21 | 3.28 | 5.03 | 3.29 | 3.56 | 1.86 | 3.64 | 4.04 | > 10 | > 10 | > 10 | > 10000 | > 10 | < 3 | > 10 | > 10 | 0.864 | 0.865 | 1.19 | 0.878 | 0.972 | 0.325 | 0.963 | 0.98
Cc1ccc(F)c(NC(=O)Nc2ccc(-c3cccc4[nH]nc(N)c34)cc2)c1 [Linifanib (ABT-869)] | 2.99 | 3.28 | 4.69 | 3.34 | 3.49 | 3.03 | 3.21 | 3.32 | 5.72 | 6.98 | > 10 | 7460 | 9.96 | 9400 | > 10 | > 10 | 0.309 | 0.242 | 1.08 | 0.279 | 0.497 | 0.472 | 0.503 | 0.672
C[C@]1(O)C[C@@H](c2nc(-c3ccc4ccc(-c5ccccc5)nc4c3)c3c(N)nccn32)C1 [Linsitinib (OSI-906)] | 2.79 | 3.35 | 4.26 | 3.06 | 2.99 | 2.85 | 3.19 | 4.2 | > 10 | > 10 | > 10 | > 10000 | > 10 | > 10000 | > 10 | > 10 | 0.651 | 0.915 | 0.904 | 0.495 | 0.562 | 0.663 | 0.878 | 0.972
Cn1cnc(-c2cc3nccc(Oc4ccc(NC(=S)NC(=O)Cc5ccccc5)cc4F)c3s2)c1 [MGCD-265] | 3.44 | 3.45 | 5.1 | 3.43 | 3.59 | 3.29 | 3.46 | 4.09 | > 10 | > 10 | > 10 | > 10000 | > 10 | > 10000 | > 10 | > 10 | 0.938 | 0.674 | 1.01 | 0.76 | 0.635 | 0.785 | 0.898 | 0.977
Cl.Cl.NC1(c2ccc(-c3nc4ccn5c(=O)[nH]nc5c4cc3-c3ccccc3)cc2)CCC1 [MK-2206 dihydrochloride] | 2.55 | 3.04 | 3.43 | 2.13 | 2.92 | 2.51 | 3.04 | 3.78 | 4.66 | > 10 | 9.92 | 67.2 | 5.82 | 2530 | > 10 | > 10 | 0.435 | 0.655 | 0.459 | 0.383 | 0.464 | 0.418 | 0.626 | 0.917
O=C(O)[C@]1(Cc2cccc(Nc3nccs3)n2)CC[C@@H](Oc2cccc(Cl)c2F)CC1 [MK-5108 (VX-689)] | 2.65 | 2.46 | 3.38 | 2.35 | 2.88 | 1.01 | 3.08 | 3.44 | 3.19 | 1.32 | 0.908 | 854 | 3.25 | 30.4 | 2.61 | 3.72 | 0.404 | 0.154 | 0.0125 | 0.262 | 0.419 | 0.00733 | 0.179 | 0.41
O=C(O)c1ccc(Nc2ncc3c(n2)-c2ccc(Cl)cc2C(c2c(F)cccc2F)=NC3)cc1 [MLN8054] | 2.93 | 3.01 | 3.59 | 2.48 | 2.84 | 2.52 | 2.85 | 3.53 | > 10 | 6.21 | > 10 | 1830 | 3.18 | 523 | 5.56 | > 10 | 0.668 | 0.427 | 0.748 | 0.246 | 0.4 | 0.038 | 0.365 | 0.562
COc1cc(Nc2ncc3c(n2)-c2ccc(Cl)cc2C(c2c(F)cccc2OC)=NC3)ccc1C(=O)O [MLN8237 (Alisertib)] | 2.78 | 2.85 | 3.14 | 1.81 | 2.31 | 1.47 | 2.44 | 3.27 | 7.87 | 3.14 | > 10 | 207 | 0.67 | 71.1 | 0.888 | > 10 | 0.492 | 0.458 | 0.531 | 0.194 | 0.221 | 0.0512 | 0.316 | 0.569
